Results published in paper PMC9814781, “Structure-based design of a dual-warhead covalent inhibitor of FGFR4” (Communications Chemistry, 2022).
Values belong to the compound of their own block, whether it stands above or below them.

Experiments:
FGFR4(C552A) mutant = details: cited from earlier work
FGFR4(C477A) = biological target: T1, FGFR4(C477A) (Homo sapiens, UniProt P22455, C477A); test: MALDI-TOF MS covalent binding
T1 construct: FGFR4 (residues 445–753); 6xHis + PreScission site (N, cleaved yes); made in house; host or cells: Escherichia coli Rosseta
T1 sequence (P22455 445-753 C477A): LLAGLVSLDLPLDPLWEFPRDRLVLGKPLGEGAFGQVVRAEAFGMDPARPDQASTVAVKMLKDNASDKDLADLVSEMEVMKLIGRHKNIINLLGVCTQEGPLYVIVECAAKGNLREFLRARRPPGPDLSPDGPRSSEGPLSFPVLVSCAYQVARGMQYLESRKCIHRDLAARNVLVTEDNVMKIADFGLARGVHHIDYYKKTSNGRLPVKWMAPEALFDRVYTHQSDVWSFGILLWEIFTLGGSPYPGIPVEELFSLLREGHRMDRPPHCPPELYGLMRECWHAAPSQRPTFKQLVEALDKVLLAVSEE
Procedure: (§1) Wild-type FGFRs and mutant FGFRs were prepared as previously described[25]–[27]. […] The N-terminal of the recombinant proteins were contained a 6xHis tag followed by a PreScission cleavage site for FGFR1, FGFR2, FGFR3, and FGFR4. Site-directed mutagenesis of FGFR4 was generated according to the ClonExpress II One Step Cloning Kit (Vazyme) using the pET28a-FGFR4 plasmid as the template. […] For crystallization experiments, the wild-type FGFR4 plasmid was co-expressed with untagged YOPH to obtain non-phosphorylated proteins. The proteins were first purified by Ni-NTA affinity chromatography. The 6 × His tag was removed by PreScission protease. Then, anion exchange chromatography (Mono Q) and size exclusion chromatography (if necessary) were exploited for further purification. The target proteins were concentrated to ~5–15 mg/mL and flash frozen for storage at −80°C for subsequent studies.

FGFR4(C552A) = biological target: T2, FGFR4(C552A) (Homo sapiens, UniProt P22455, C552A); test: MALDI-TOF MS covalent binding
T2 construct: FGFR4 (residues 445–753); 6xHis + PreScission site (N, cleaved yes); made in house; host or cells: Escherichia coli Rosseta
T2 sequence (P22455 445-753 C552A): as the sequence (P22455 445-753 C477A) above, with A33C, C108A counted along it
Procedure: as §1

FGFR4 = biological target: T3, FGFR4 (Homo sapiens, UniProt P22455); test: MALDI-TOF MS covalent binding
T3 construct: purchased ICE Bioscience
T3 sequence (P22455 22-802): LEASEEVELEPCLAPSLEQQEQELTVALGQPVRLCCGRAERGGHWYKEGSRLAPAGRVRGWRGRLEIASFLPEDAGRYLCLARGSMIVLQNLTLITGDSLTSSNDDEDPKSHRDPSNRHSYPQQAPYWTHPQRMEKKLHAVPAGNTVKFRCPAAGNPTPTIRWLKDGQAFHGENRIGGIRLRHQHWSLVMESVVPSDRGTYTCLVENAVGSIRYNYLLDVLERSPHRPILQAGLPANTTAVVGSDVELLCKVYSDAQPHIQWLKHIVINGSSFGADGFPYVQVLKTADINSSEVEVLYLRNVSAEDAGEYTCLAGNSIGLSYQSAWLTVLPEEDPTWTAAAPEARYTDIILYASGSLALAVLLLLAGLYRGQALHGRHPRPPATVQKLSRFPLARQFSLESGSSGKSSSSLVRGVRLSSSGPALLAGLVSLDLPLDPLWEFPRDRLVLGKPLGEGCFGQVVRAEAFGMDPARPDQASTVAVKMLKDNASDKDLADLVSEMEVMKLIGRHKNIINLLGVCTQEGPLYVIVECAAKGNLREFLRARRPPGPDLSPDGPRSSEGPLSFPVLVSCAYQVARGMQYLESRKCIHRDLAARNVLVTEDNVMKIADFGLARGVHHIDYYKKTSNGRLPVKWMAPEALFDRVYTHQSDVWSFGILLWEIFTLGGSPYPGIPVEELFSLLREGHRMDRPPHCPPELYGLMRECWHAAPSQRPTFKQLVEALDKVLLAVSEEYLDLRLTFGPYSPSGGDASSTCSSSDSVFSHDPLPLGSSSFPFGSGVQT
Procedure: as §1

FGFR1 = FGFR1 (Homo sapiens, UniProt P11362); test: MALDI-TOF MS covalent binding
Sequence of FGFR1 (P11362 22-822): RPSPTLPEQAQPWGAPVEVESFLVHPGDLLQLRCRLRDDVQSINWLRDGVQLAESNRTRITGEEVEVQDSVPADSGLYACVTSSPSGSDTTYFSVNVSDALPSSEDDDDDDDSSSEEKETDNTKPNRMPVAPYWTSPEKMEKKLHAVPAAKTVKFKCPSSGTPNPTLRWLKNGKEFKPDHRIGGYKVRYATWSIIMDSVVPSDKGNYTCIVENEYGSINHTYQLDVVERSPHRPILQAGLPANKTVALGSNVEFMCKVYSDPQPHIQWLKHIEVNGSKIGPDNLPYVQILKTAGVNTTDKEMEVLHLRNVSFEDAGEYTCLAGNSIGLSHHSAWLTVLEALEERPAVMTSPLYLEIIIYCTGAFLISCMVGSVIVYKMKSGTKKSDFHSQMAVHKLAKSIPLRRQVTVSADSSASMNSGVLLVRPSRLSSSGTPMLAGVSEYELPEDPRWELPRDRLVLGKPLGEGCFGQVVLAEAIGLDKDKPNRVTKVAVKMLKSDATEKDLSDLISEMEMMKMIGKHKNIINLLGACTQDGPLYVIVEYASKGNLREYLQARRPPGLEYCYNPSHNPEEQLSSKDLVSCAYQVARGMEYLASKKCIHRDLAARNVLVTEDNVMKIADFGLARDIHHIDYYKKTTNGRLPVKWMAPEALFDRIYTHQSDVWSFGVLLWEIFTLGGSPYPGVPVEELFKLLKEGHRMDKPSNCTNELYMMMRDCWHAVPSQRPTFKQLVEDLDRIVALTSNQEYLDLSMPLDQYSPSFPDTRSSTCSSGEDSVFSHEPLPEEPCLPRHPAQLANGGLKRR
Procedure: The N-terminal of the recombinant proteins were contained a 6xHis tag followed by a PreScission cleavage site for FGFR1, FGFR2, FGFR3, and FGFR4. […] The proteins were first purified by Ni-NTA affinity chromatography. The 6 × His tag was removed by PreScission protease. Then, anion exchange chromatography (Mono Q) and size exclusion chromatography (if necessary) were exploited for further purification. The target proteins were concentrated to ~5–15 mg/mL and flash frozen for storage at −80°C for subsequent studies.

GSH reaction assay = format: in vitro ADME; details: GSH 5 mM, inhibitor 1 mM, 37°C, 10–60 min
Procedure: GSH (5 mM) and inhibitor (1 mM) or DMSO control were mixed in equal volumes and reacted at 37°C for 10 min, 20 min, 30 min, 40 min, 50 min, and 60 min. The remaining GSH was detected with DTNB (Beyotime, China), and the absorption light was measured at 412 nm on a plate reader (Perkin-Elmer). Data were determined using the time (min) versus % of control in Origin 2018 software.

SMILES: C=CC(=O)N[C@H]1CCOC[C@H]1Nc1ncc2cc(-c3c(Cl)c(OC)cc(OC)c3Cl)ccc2n1 [BLU554]
IC50 (FGFR4(C552A) mutant): > 10 µM

covalent bond formation (mass shift) (FGFR4(C477A)): forms a covalent bond with FGFR4(C477A) | covalent bond formation (mass shift) (FGFR4(C552A)): not with FGFR4(C552A) | covalent bond formation (mass shift) (FGFR1): forms a covalent bond with FGFR1
SMILES: C=CC(=O)Nc1cccc(C)c1Nc1ncc2c(n1)N(CCCN1CCN(C(=O)C=C)CC1)C(=O)N(c1cc(OC)cc(OC)c1)C2 [CXF-008]
covalent bond formation (mass shift) (FGFR4): only forms one covalent bond with Cys552 of FGFR4

GSH reactivity (remaining GSH, DTNB) (GSH reaction assay): time-dependent decrease in GSH
SMILES: C=CC(=O)N1CCN(CCCn2c(=O)c(-c3c(Cl)c(OC)cc(OC)c3Cl)cc3cnc(NC)nc32)CC1 [PRN1371, 8-(3-(4-Acryloylpiperazin-1-yl)propyl)-6-(2,6-dichloro-3,5-dimethoxyphenyl)-2-(methylamino)pyrido[2,3-d]pyrimidin-7(8H)-one, reference compound]
